{
  "source": "patent US9085756B2",
  "about": "“Drug screening using islet cells and islet cell progenitors from human embryonic stem cells” (Asterias Biotherapeutic, Inc., priority 2001, dated 2015)",
  "system": "hES cells",
  "test": "Hepatocyte differentiation of hES cells, morphology",
  "type": "cell-based, human",
  "conditions": "4 days in medium containing butyrate (after 1% DMSO pre-differentiation)",
  "excerpt": "Undifferentiated hES cells were differentiated into cells having characteristics of human hepatocytes using a strategy to initiate a global differentiation process using DMSO in a subconfluent culture. The cells are then induced to form hepatocyte-like cells by the addition of Na-butyrate.\nBriefly, the hES cells were maintained in undifferentiated culture conditions for 2-3 days after splitting. At this time, the cells were 50 to 60% confluent and the medium was exchanged with unconditioned SR medium containing 1% DMSO (Step II). The cultures were fed daily with SR medium for 4 days and then exchanged into unconditioned SR medium containing both 1% DMSO and […] Na-butyrate, with which they were fed daily for 6 days (Step III). They were then replated onto collagen, and cultured in a hepatocyte maturation medium containing a cocktail of hepatocyte-friendly growth factors (Step IV).",
  "data": [
    {"smiles": "CCCC(=O)[O-].[Na+]", "note": "[butyrate, sodium n-butyrate]", "values": [
      {"measurement": "Cells in the culture with large nuclei and granular cytoplasm", "value": "more than 80%"},
      {"measurement": "Cells in the culture with large nuclei and granular cytoplasm", "setting": "listed as sodium n-butyrate", "value": "More than 80%"}
    ]}
  ]
}
